Experimental data from ChEMBL document CHEMBL3885861, “Open TG-GATES”.

Organism: Rattus norvegicus
Assay: Open TG-GATES - Regimen: Single
Type: toxicity, organism-based, Sprague-Dawley
Design: regimen Single, gender Male, age 6 weeks
Details: in vivo, po, 20 mg/kg, route gavage, dose level Low; for APTT / Bas / Eos / Fbg / Hb / Ht / Lym / MCH / MCHC / MCV / Mono / Neu / PT / Plat / RBC / Ret / WBC: tissue Blood; for KIDNEY_L / KIDNEY_R / KIDNEY_TOTAL: tissue Kidney; for LIVER: tissue Liver; for A/G / ALP / ALT / AST / BUN / CRE / Ca / Cl / DBIL / GLC / IP / K / LDH / Na / PL / RALB / TBIL / TC / TG / TP / gamma-GTP: tissue Plasma

## CC(CN1c2ccccc2Sc2ccccc21)N(C)C (configuration not stated) [PROMETHAZINE]
3 h
  TERMINAL_BW: 208 g
  APTT: 23.7 s
  Bas: 0%
  Eos: 0.6%
  Fbg: 325.8 mg/dL
  Hb: 13.5 g/dL
  Ht: 41.2%
  Lym: 81.4%
  MCH: 20.7 pg
  MCHC: 32.7%
  MCV: 63.3 fL
  Mono: 2.2%
  Neu: 15.4%
  PT: 16.4 s
  Plat: 114.7 x10_4/uL
  RBC: 651.2 x10_4/ul
  Ret: 8.2%
  WBC: 78 x10_2/uL
  KIDNEY_L: 0.9 g
  KIDNEY_R: 0.9 g
  KIDNEY_TOTAL: 1.8 g
  LIVER: 9.2 g
  A/G: 1.2
  ALP: 1475 IU/L
  ALT: 53.2 IU/L
  AST: 73.6 IU/L
  BUN: 10.6 mg/dL
  CRE: 0.2 mg/dL
  Ca: 10.5 mg/dL
  Cl: 105.8 meq/L
  DBIL: 0.018 mg/dL
  GLC: 177.8 mg/dL
  IP: 9.1 mg/dL
  K: 4.3 meq/L
  LDH: 202.2 IU/L
  Na: 142.4 meq/L
  PL: 140.2 mg/dL
  RALB: 2.9 g/dL
  TBIL: 0.02 mg/dL
  TC: 82 mg/dL
  TG: 60.4 mg/dL
  TP: 5.4 g/dL
  gamma-GTP: 1.2 IU/L
6 h
  TERMINAL_BW: 211.9 g
  APTT: 22.9 s
  Bas: 0%
  Eos: 0.6%
  Fbg: 315 mg/dL
  Hb: 13.2 g/dL
  Ht: 40%
  Lym: 83.4%
  MCH: 20.5 pg
  MCHC: 33.1%
  MCV: 62.1 fL
  Mono: 2.2%
  Neu: 13.2%
  PT: 16.9 s
  Plat: 118.2 x10_4/uL
  RBC: 644.8 x10_4/ul
  Ret: 7.8%
  WBC: 108.7 x10_2/uL
  KIDNEY_L: 0.9 g
  KIDNEY_R: 1 g
  KIDNEY_TOTAL: 1.9 g
  LIVER: 9 g
  A/G: 1.3
  ALP: 1313.4 IU/L
  ALT: 41.2 IU/L
  AST: 72.2 IU/L
  BUN: 10.4 mg/dL
  CRE: 0.2 mg/dL
  Ca: 10.9 mg/dL
  Cl: 105.4 meq/L
  DBIL: 0.014 mg/dL
  GLC: 178.8 mg/dL
  IP: 9.7 mg/dL
  K: 4.3 meq/L
  LDH: 161 IU/L
  Na: 141.4 meq/L
  PL: 131.2 mg/dL
  RALB: 3.1 g/dL
  TBIL: 0.03 mg/dL
  TC: 76.2 mg/dL
  TG: 69.8 mg/dL
  TP: 5.5 g/dL
  gamma-GTP: 1.2 IU/L
9 h
  TERMINAL_BW: 213 g
  APTT: 22.5 s
  Bas: 0%
  Eos: 0.4%
  Fbg: 311.4 mg/dL
  Hb: 13 g/dL
  Ht: 39.2%
  Lym: 77.8%
  MCH: 20.2 pg
  MCHC: 33%
  MCV: 61.3 fL
  Mono: 2%
  Neu: 18.6%
  PT: 16.8 s
  Plat: 119.8 x10_4/uL
  RBC: 639.8 x10_4/ul
  Ret: 7.2%
  WBC: 108 x10_2/uL
  KIDNEY_L: 1 g
  KIDNEY_R: 1 g
  KIDNEY_TOTAL: 1.9 g
  LIVER: 8.6 g
  A/G: 1.2
  ALP: 1421.2 IU/L
  ALT: 43.4 IU/L
  AST: 69 IU/L
  BUN: 11.4 mg/dL
  CRE: 0.2 mg/dL
  Ca: 10.9 mg/dL
  Cl: 105 meq/L
  DBIL: 0.008 mg/dL
  GLC: 183.8 mg/dL
  IP: 10.2 mg/dL
  K: 4.3 meq/L
  LDH: 152.8 IU/L
  Na: 140.8 meq/L
  PL: 123.2 mg/dL
  RALB: 2.9 g/dL
  TBIL: 0.018 mg/dL
  TC: 72.2 mg/dL
  TG: 51.4 mg/dL
  TP: 5.4 g/dL
  gamma-GTP: 1.4 IU/L
24 h
  TERMINAL_BW: 220.8 g
  APTT: 22.2 s
  Bas: 0%
  Eos: 0.8%
  Fbg: 317.2 mg/dL
  Hb: 13.4 g/dL
  Ht: 39.8%
  Lym: 79.8%
  MCH: 20.8 pg
  MCHC: 33.6%
  MCV: 62 fL
  Mono: 2.4%
  Neu: 16.4%
  PT: 16.6 s
  Plat: 117.2 x10_4/uL
  RBC: 643.4 x10_4/ul
  Ret: 7.2%
  WBC: 125.3 x10_2/uL
  KIDNEY_L: 0.9 g
  KIDNEY_R: 0.9 g
  KIDNEY_TOTAL: 1.9 g
  LIVER: 10.1 g
  A/G: 1.3
  ALP: 1645.6 IU/L
  ALT: 49.8 IU/L
  AST: 76 IU/L
  BUN: 17.4 mg/dL
  CRE: 0.2 mg/dL
  Ca: 11 mg/dL
  Cl: 106 meq/L
  DBIL: 0 mg/dL
  GLC: 188 mg/dL
  IP: 6.8 mg/dL
  K: 4.1 meq/L
  LDH: 154 IU/L
  Na: 142.6 meq/L
  PL: 146.2 mg/dL
  RALB: 3.1 g/dL
  TBIL: 0.002 mg/dL
  TC: 78.2 mg/dL
  TG: 109.2 mg/dL
  TP: 5.5 g/dL
  gamma-GTP: 1.6 IU/L
